Data on 28 compounds can be found in BindingDB's records for doi:10.1016/j.bmcl.2006.03.041 (Abbott Laboratories, 2006).

Assay [1] has as its target T1, RAC-alpha serine/threonine-protein kinase [139-480,S378A,S381A,T450D,S473D] (Homo sapiens, UniProt P31749, S378A/S381A/S473D/T450D).
T1 construct: 139-480
Nature of the assay: Akt Kinase Assay. The method, then:
The kinase assay uses His-Akt1 and a biotinylated peptide as substrate. The biotinylated peptides were immobilized on streptavidin-coated FLASH plates. After reaction, the 33P-phosphopeptide captured on the FLASH plates was measured with a TopCount Packard Instruments […] (Packard Instruments, Boston, MA).

In assay [2] the target is T2, Protein kinase C zeta type (Homo sapiens, UniProt Q05513).
T2 sequence (Q05513 whole entry): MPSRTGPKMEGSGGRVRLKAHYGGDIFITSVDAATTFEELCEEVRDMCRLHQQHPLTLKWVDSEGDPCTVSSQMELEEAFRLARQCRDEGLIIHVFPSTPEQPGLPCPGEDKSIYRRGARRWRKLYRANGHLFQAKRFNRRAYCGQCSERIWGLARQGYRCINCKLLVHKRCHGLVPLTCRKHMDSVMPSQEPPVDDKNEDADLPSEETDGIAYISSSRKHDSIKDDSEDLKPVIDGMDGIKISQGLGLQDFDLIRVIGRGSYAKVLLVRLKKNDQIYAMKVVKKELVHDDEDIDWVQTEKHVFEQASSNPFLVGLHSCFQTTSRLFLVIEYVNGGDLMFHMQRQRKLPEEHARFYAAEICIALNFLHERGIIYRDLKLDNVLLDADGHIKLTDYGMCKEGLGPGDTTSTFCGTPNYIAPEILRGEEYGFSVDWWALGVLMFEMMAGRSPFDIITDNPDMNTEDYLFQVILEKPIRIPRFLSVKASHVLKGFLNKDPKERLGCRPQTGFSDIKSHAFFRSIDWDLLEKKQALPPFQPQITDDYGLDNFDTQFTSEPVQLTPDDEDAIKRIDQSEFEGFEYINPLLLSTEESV
Put plainly: PKA/PKC Kinase Assay. Conditions: pH 7.5; 22 °C. Here is the method:
The kinase assay uses purified recombinant enzyme and a biotinylated peptide as substrate. The biotinylated peptides were immobilized on streptavidin-coated FLASH plates. After reaction, the 33P-phosphopeptide captured on the FLASH plates was measured with a TopCount Packard Instruments gamma counter (Packard Instruments, Boston, MA). IC50s were calculated using the sigmoidal curve fit with the Assay Explorer software (MDL, Los Angeles, CA).

Structures are written as SMILES.

T1 sequence (P31749 139-480 S378A/S381A/T450D/S473D): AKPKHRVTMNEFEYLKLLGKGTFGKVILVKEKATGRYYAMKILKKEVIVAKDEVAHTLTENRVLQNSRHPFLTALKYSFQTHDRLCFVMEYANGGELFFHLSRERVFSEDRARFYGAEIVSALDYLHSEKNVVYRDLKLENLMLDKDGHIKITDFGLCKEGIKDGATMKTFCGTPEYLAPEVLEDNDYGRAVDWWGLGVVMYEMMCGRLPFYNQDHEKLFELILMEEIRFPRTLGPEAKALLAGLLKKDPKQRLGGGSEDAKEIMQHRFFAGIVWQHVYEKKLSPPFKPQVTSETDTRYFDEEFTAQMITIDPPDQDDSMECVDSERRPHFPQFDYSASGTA

`N#Cc1ncc(OC[C@@H](N)Cc2c[nH]c3ccccc23)cc1-c1ccc2cnccc2c1` [5-[(2S)-2-amino-3-(1H-indol-3-yl)propoxy]-3-(isoquinolin-6-yl)pyridine-2-carbonitrile] came in with an IC50 in assay [1] (pH 7.5, 22 °C) of 4.6 nM.
Still for that read-out and setting: in the case of `N[C@H](COc1cnc(C#Cc2ccccc2)c(-c2ccc3cnccc3c2)c1)Cc1c[nH]c2ccccc12` [6-{5-[(2S)-2-amino-3-(1H-indol-3-yl)propoxy]-2-(2-phenylethynyl)pyridin-3-yl}isoquinoline] it was 1240 nM; in that of `N[C@H](COc1cnc(-c2ccco2)c(-c2ccc3cnccc3c2)c1)Cc1c[nH]c2ccccc12` [6-{5-[(2S)-2-amino-3-(1H-indol-3-yl)propoxy]-2-(furan-2-yl)pyridin-3-yl}isoquinoline], 1.5 nM.
In the case of `N[C@H](COc1cnc(Cl)c(-c2ccc3cnccc3c2)c1)Cc1c[nH]c2ccccc12` [6-{5-[(2S)-2-amino-3-(1H-indol-3-yl)propoxy]-2-chloropyridin-3-yl}isoquinoline], the IC50 in assay [1] (pH 7.5, 22 °C) was 1.8 nM; in assay [2], more than 5 µM.
In assay [1] (pH 7.5, 22 °C), `C=Cc1ncc(OC[C@@H](N)Cc2c[nH]c3ccccc23)cc1-c1ccc2cnccc2c1` [6-{5-[(2S)-2-amino-3-(1H-indol-3-yl)propoxy]-2-ethenylpyridin-3-yl}isoquinoline] had an IC50 of 2 nM.
Turning to `C#Cc1ncc(OC[C@@H](N)Cc2c[nH]c3ccccc23)cc1-c1ccc2cnccc2c1` [6-{5-[(2S)-2-amino-3-(1H-indol-3-yl)propoxy]-2-ethynylpyridin-3-yl}isoquinoline], it took 0.8 nM to reach half-maximal inhibition in assay [1] (pH 7.5, 22 °C) (IC50).
Turning to `Cc1c(OC[C@@H](N)Cc2c[nH]c3ccccc23)cncc1-c1ccc2cnccc2c1` [6-{5-[(2S)-2-amino-3-(1H-indol-3-yl)propoxy]-4-methylpyridin-3-yl}isoquinoline], the IC50 in assay [1] (pH 7.5, 22 °C) turned out to be 84 nM.
Take `N[C@H](COc1cc(-c2ccc3cnccc3c2)cnc1Cl)Cc1c[nH]c2ccccc12` [6-{5-[(2S)-2-amino-3-(1H-indol-3-yl)propoxy]-6-chloropyridin-3-yl}isoquinoline]: the IC50 in assay [1] (pH 7.5, 22 °C) was determined as 12 nM.
In the case of `N[C@H](COc1cncc(-c2ccc3c(Cl)nccc3c2)c1)Cc1c[nH]c2ccccc12` [6-{5-[(2S)-2-amino-3-(1H-indol-3-yl)propoxy]pyridin-3-yl}-1-chloroisoquinoline], in assay [1] (pH 7.5, 22 °C), it took 778 nM to reach half-maximal inhibition (IC50).
`N[C@H](COc1cncc(-c2ccc3c(F)nccc3c2)c1)Cc1c[nH]c2ccccc12` [6-{5-[(2S)-2-amino-3-(1H-indol-3-yl)propoxy]pyridin-3-yl}-1-fluoroisoquinoline] showed an IC50 in assay [1] (pH 7.5, 22 °C) of 227 nM.
Take `COc1nccc2cc(-c3cncc(OC[C@@H](N)Cc4c[nH]c5ccccc45)c3)ccc12` [6-{5-[(2S)-2-amino-3-(1H-indol-3-yl)propoxy]pyridin-3-yl}-1-methoxyisoquinoline]: the midpoint of inhibition in assay [1] (pH 7.5, 22 °C), the IC50, lay at 39500 nM.
`N[C@H](COc1cncc(-c2ccc3cnc(C#Cc4ccccc4)cc3c2)c1)Cc1c[nH]c2ccccc12` [6-{5-[(2S)-2-amino-3-(1H-indol-3-yl)propoxy]pyridin-3-yl}-3-(2-phenylethynyl)isoquinoline]: in assay [1], half-maximal inhibition (IC50) required 56 nM.
In the case of `N[C@H](COc1cncc(-c2ccc3cnc(-c4ccco4)cc3c2)c1)Cc1c[nH]c2ccccc12` [6-{5-[(2S)-2-amino-3-(1H-indol-3-yl)propoxy]pyridin-3-yl}-3-(furan-2-yl)isoquinoline], inhibition in assay [1] was half-maximal at 57 nM (IC50).
The compound `CC#Cc1cc2cc(-c3cncc(OC[C@@H](N)Cc4c[nH]c5ccccc45)c3)ccc2cn1` [6-{5-[(2S)-2-amino-3-(1H-indol-3-yl)propoxy]pyridin-3-yl}-3-(prop-1-yn-1-yl)isoquinoline] came in with an IC50 in assay [1] of 180 nM.
In assay [1], `N[C@H](COc1cncc(-c2ccc3cnc(-c4ccncc4)cc3c2)c1)Cc1c[nH]c2ccccc12` [6-{5-[(2S)-2-amino-3-(1H-indol-3-yl)propoxy]pyridin-3-yl}-3-(pyridin-4-yl)isoquinoline] returned an IC50 of 122 nM.
In the case of `N[C@H](COc1cncc(-c2ccc3cnc(Cl)cc3c2)c1)Cc1c[nH]c2ccccc12` [6-{5-[(2S)-2-amino-3-(1H-indol-3-yl)propoxy]pyridin-3-yl}-3-chloroisoquinoline], the IC50 in assay [1] is 407 nM.
With `C=Cc1cc2cc(-c3cncc(OC[C@@H](N)Cc4c[nH]c5ccccc45)c3)ccc2cn1` [6-{5-[(2S)-2-amino-3-(1H-indol-3-yl)propoxy]pyridin-3-yl}-3-ethenylisoquinoline], the IC50 in assay [1] is 22 nM.
The same measure, in the same setting: the figure for `CCc1cc2cc(-c3cncc(OC[C@@H](N)Cc4c[nH]c5ccccc45)c3)ccc2cn1` [6-{5-[(2S)-2-amino-3-(1H-indol-3-yl)propoxy]pyridin-3-yl}-3-ethylisoquinoline] is 144 nM.
In assay [1], `N[C@H](COc1cncc(-c2ccc3cnc(F)cc3c2)c1)Cc1c[nH]c2ccccc12` [6-{5-[(2S)-2-amino-3-(1H-indol-3-yl)propoxy]pyridin-3-yl}-3-fluoroisoquinoline] displayed an IC50 of 3.5 nM.
The same measure, in the same setting: the figure for `N[C@H](COc1cncc(-c2ccc3cnc(-c4ccccc4)cc3c2)c1)Cc1c[nH]c2ccccc12` [6-{5-[(2S)-2-amino-3-(1H-indol-3-yl)propoxy]pyridin-3-yl}-3-phenylisoquinoline] is 305 nM; for `Cc1cc(-c2cncc(OC[C@@H](N)Cc3c[nH]c4ccccc34)c2)cc2ccncc12` [6-{5-[(2S)-2-amino-3-(1H-indol-3-yl)propoxy]pyridin-3-yl}-8-methylisoquinoline] it is 995 nM.
In turn, `Nc1nccc2cc(-c3cncc(OC[C@@H](N)Cc4c[nH]c5ccccc45)c3)ccc12` [6-{5-[(2S)-2-amino-3-(1H-indol-3-yl)propoxy]pyridin-3-yl}isoquinolin-1-amine] showed an IC50 in assay [1] (pH 7.5, 22 °C) of 160 nM.
On to `N[C@H](COc1cncc(-c2ccc3c(=O)[nH]ccc3c2)c1)Cc1c[nH]c2ccccc12` [6-{5-[(2S)-2-amino-3-(1H-indol-3-yl)propoxy]pyridin-3-yl}isoquinolin-1-ol], for which, in assay [1] (pH 7.5, 22 °C), half-maximal inhibition (IC50) was put at 1240 nM.
`Nc1cc2cc(-c3cncc(OC[C@@H](N)Cc4c[nH]c5ccccc45)c3)ccc2cn1` [6-{5-[(2S)-2-amino-3-(1H-indol-3-yl)propoxy]pyridin-3-yl}isoquinolin-3-amine]: the IC50 in assay [1] worked out at 3.4 nM.
The same measure, in the same setting: in the case of `Nc1c(-c2cncc(OC[C@@H](N)Cc3c[nH]c4ccccc34)c2)ccc2cnccc12` [6-{5-[(2S)-2-amino-3-(1H-indol-3-yl)propoxy]pyridin-3-yl}isoquinolin-5-amine] it was 15 nM; in that of `N#Cc1cc2cc(-c3cncc(OC[C@@H](N)Cc4c[nH]c5ccccc45)c3)ccc2cn1` [6-{5-[(2S)-2-amino-3-(1H-indol-3-yl)propoxy]pyridin-3-yl}isoquinoline-3-carbonitrile], 640 nM.
For `N[C@H](COc1cncc(-c2ccc3cnccc3c2)c1)Cc1c[nH]c2ccccc12` [13a (S-)], the IC50 in assay [1] (pH 7.5, 22 °C) was determined as 2 nM.
`N#C/C=C/c1c(OC[C@@H](N)Cc2c[nH]c3ccccc23)cncc1-c1ccc2cnccc2c1` [(2E)-3-{3-[(2S)-2-amino-3-(1H-indol-3-yl)propoxy]-5-(isoquinolin-6-yl)pyridin-4-yl}prop-2-enenitrile]: the IC50 in assay [1] (pH 7.5, 22 °C) was 697 nM.

One may read the IC50 as the concentration that inhibits the measured activity by half.
